Measurements as given in patent US20230066011A1, “PYRROLOPYRIMIDINE DERIVATIVE, AND PHARMACEUTICAL COMPOSITION FOR PREVENTING OR TREATING PROTEIN KINASE-RELATED DISEASE COMPRISING SAME AS ACTIVE INGREDIENT” (VORONOI CO., LTD., priority 2019, published 2023).

Legend:
Type in all cases: biochemical
LRRK2 (G2019S) = LRRK2 (G2019S) (Homo sapiens, UniProt Q5S007, G2019S); test: LRRK2 G2019S enzyme inhibition, ADP-Glo kinase assay; design: purchased SignalChem L10-12GG; conditions: ATP 25 μM
Outline: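 Purified human LRRK2 G2019S (16 ng) with 25 μM ATP and 0.2 μg substrate, 2 h at 25° C. in Tris-HCl pH 7.4, MgCl2, BSA, DTT buffer; compounds at 12 final concentrations, 50 μM down to 0.000001024 μM. ADP-Glo luminescence versus solvent control gave IC50.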

human GST-DYRK1A = target: T1, human GST-DYRK1A (Homo sapiens, UniProt Q13627); test: GST-DYRK1A enzyme inhibition, ADP-Glo kinase assay; conditions: ATP 10 μM, GST-DYRK1A full length, read-out: DYRK1 IC50
T1 construct: purified human GST-DYRK1A (full length, Thermo Scientifics) enzyme; purchased Thermo Scientifics
Outline: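 Full-length human GST-DYRK1A (10 ng) with 10 μM ATP and specific substrate in 40 mM Tris-HCl pH 7.4, 20 mM MgCl2, 0.5 mg/mL BSA, 50 μM DTT, 1 h at 25 °C. ADP formation read by ADP-Glo luminescence relative to solvent control; IC50 from three data sets.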

human GST-CLK1 = target: T2, human GST-CLK1 (Homo sapiens, UniProt P49759); test: GST-CLK1 enzyme inhibition, ADP-Glo kinase assay; conditions: ATP 10 μM, GST-CLK1 129-end
T2 construct: purified human GST-CLK1 (129-end, SignalChem) enzyme; purchased SignalChem
T2 sequence (P49759 129-484 limits assumed): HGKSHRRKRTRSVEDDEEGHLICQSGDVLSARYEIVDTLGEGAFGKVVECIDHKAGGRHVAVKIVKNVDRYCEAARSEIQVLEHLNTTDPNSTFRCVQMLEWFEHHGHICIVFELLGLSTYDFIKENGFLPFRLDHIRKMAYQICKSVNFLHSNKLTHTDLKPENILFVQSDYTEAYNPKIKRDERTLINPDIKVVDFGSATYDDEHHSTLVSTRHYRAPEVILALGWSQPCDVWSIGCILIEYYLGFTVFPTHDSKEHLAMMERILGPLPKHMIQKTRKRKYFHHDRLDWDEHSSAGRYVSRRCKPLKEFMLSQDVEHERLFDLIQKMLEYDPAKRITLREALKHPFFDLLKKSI
Outline: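 Human GST-CLK1 (129-end, 3 ng) reacted with substrate and 10 μM ATP for 1 h at 25° C in 40 mM Tris-HCl pH 7.4, 20 mM MgCl2, 0.5 mg/mL BSA, 50 μM DTT. ADP-Glo luminescence was normalised to solvent control; IC50 (nM) from 3 data sets.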

Chain of LRRK2 (G2019S) (Q5S007 970-2527 G2019S limits assumed): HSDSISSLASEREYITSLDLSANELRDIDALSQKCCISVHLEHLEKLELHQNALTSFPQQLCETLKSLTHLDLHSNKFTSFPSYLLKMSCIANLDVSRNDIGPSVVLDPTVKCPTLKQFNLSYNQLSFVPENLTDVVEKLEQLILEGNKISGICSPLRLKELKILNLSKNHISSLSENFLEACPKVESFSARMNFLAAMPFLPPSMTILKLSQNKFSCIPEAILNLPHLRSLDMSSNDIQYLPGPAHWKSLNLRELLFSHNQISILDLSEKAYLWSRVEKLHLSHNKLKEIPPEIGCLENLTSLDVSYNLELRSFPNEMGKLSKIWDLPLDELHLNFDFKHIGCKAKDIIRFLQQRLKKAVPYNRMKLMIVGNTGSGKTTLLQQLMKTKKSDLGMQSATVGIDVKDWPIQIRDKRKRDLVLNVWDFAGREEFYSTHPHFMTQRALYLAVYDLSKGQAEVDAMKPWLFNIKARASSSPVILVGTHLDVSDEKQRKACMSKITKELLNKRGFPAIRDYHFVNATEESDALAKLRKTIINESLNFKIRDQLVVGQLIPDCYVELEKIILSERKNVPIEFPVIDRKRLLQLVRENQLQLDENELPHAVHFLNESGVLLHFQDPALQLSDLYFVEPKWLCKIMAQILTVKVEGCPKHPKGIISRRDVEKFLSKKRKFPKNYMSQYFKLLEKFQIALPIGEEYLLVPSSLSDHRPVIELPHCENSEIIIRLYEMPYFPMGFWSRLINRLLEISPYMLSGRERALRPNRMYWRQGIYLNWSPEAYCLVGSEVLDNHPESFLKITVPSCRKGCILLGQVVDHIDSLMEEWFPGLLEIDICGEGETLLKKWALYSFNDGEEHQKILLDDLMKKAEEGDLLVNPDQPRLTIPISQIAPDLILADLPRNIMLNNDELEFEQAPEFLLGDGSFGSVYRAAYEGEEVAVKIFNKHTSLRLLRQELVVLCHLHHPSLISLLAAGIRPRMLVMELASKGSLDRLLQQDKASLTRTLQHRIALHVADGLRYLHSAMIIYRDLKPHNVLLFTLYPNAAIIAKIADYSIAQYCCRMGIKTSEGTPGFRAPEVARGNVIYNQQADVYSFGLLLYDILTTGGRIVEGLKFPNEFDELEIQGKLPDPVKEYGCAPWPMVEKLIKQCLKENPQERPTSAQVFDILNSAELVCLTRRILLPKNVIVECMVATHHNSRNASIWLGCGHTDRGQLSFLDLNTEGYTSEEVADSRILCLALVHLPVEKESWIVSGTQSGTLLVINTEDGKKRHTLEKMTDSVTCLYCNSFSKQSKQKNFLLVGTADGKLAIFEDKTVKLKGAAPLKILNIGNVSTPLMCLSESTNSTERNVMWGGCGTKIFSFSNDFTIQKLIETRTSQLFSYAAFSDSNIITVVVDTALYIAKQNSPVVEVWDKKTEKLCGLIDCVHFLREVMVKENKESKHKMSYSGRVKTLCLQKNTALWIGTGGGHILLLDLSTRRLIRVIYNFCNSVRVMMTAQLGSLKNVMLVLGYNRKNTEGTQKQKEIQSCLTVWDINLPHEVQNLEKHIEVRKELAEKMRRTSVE

| IC50 (LRRK2 (G2019S)) [nM] | IC50 (human GST-DYRK1A) [nM] | IC50 (human GST-CLK1) [nM] | SMILES |
| --- | --- | --- | --- |
| < 100 | 301 to 1000 | < 100 | CC[C@@H](C)Nc1nc(Nc2ccc(C(=O)N3CCOCC3)c3c2OCC3)nc2[nH]cc(C#N)c12 [Example 354, (R)-4-(sec-butylamino)-2-((4-(morpholine-4-carbonyl)-2,3-dihydrobenzo-furan-yl)amino)-7H-pyrrolo[2,3-d]pyrimidine-5-carbonitrile] |
| < 100 | < 100 | < 100 | CC[C@@H](C)Nc1nc(Nc2ccc(C(=O)N3CCC(N4CCOCC4)CC3)c3c2OCC3)nc2[nH]cc(C#N)c12 [Example 355, (R)-4-(sec-butylamino)-2-((4-(4-morpho-linopiperidine-1-carbonyl)-2,3-dihydro-benzofuran-7-yl)amino)-7H-pyrrolo[2,3-d]pyrimidine-5-carbonitrile] |
| < 100 | 301 to 1000 | 301 to 1000 | CC[C@H](C)Nc1nc(Nc2ccc(C(=O)N3CCOCC3)c3c2OCC3)nc2[nH]cc(C#N)c12 [Example 356, (S)-4-(sec-butylamino)-2-((4-(morpholine-4-carbonyl)-2,3-dihydro-benzofuran-7-yl)amino)-7H-pyrrolo[2,3-d]pyrimidine-5-carbonitrile] |
| < 100 | 301 to 1000 | 301 to 1000 | CC[C@H](C)Nc1nc(Nc2ccc(C(=O)N3CCOCC3)c3c2OCCO3)nc2[nH]cc(C(F)(F)F)c12 [Example 381, (S)-(8-((4-(sec-butylamino)-5-(trifluoromethyl)-7H-pyrrolo[2,3-d]pyrimidin-2-yl)amino)-2,3-dihydrobenzo[b] [1,4]dioxin-5-yl)(morpholino) methanone] |
| < 100 | 301 to 1000 | < 100 | COc1cc(S(C)(=O)=O)ccc1Nc1nc(N[C@H]2CCOC2)c2c(C(F)(F)F)c[nH]c2n1 [Example 384, (S)-N^2-(2-methoxy-4-(methylsulfonyl)phenyl)-N^4-(tetrahydrofuran-3-yl)-5-(trifluoromethyl)-7H-pyrrolo[2,3-d]pyrimidine-2,4-diamine] |
| < 100 | 301 to 1000 | 301 to 1000 | CC[C@H](C)Nc1nc(Nc2ccc(P(C)(C)=O)cc2OC)nc2[nH]cc(C(F)(F)F)c12 [Example 385, (S)-(4-((4-(sec-butylamino)-5-(trifluoromethyl)-7H-pyrrolo[2,3-d]pyrimidin-2-yl)amino)-3-methoxyphenyl) dimethyl-phosphine oxide] |
| < 100 | 301 to 1000 | 301 to 1000 | COc1cc(P(C)(C)=O)ccc1Nc1nc(NC2CCCC2)c2c(C(F)(F)F)c[nH]c2n1 [Example 387, (4-((4-(cyclo-pentylamino)-5-(trifluoromethyl)-7H-pyrrolo[2,3-d]pyrimidin-2-yl)amino)-3-methoxy-phenyl)di-methylphosphine oxide] |
| < 100 | < 100 | < 100 | COc1cc(P(C)(C)=O)ccc1Nc1nc(N[C@@H]2CCOC2)c2c(C(F)(F)F)c[nH]c2n1 [Example 388, (R)-(3-methoxy-4-((4-((tetrahydrofuran-3-yl)amino)-5-(trifluoromethyl)-7H-pyrrolo[2,3-d]pyrimidin-2-yl)amino)phenyl)di-methylphosphine oxide] |
| < 100 | 301 to 1000 | < 100 | COc1cc(P(C)(C)=O)ccc1Nc1nc(NC2CCOCC2)c2c(C(F)(F)F)c[nH]c2n1 [Example 389, (3-methoxy-4-((4-((tetrahydro-2H-pyran-4-yl)amino)-5-(trifluoromethyl)-7H-pyrrolo[2,3-d]pyrimidin-2-yl)amino)phenyl) dimethyl-phosphine oxide] |
| < 100 | 301 to 1000 | < 100 | COc1cc(P(C)(C)=O)ccc1Nc1nc(NCC2CC2)c2c(C(F)(F)F)c[nH]c2n1 [Example 390, (4-((4-((cyclo-propylmeth-yl)amino)-5-(trifluoromethyl)-7H-pyrrolo[2,3-d]pyrimidin-2-yl)amino)-3-methoxyphenyl) dimethyl-phosphine oxide] |
| < 100 | 301 to 1000 | 301 to 1000 | COc1cc(P(C)(C)=O)ccc1Nc1nc(NCC2CCC2)c2c(C(F)(F)F)c[nH]c2n1 [Example 391, (4-((4-((cyclo-butylmethyl)amino)-5-(trifluoromethyl)-7H-pyrrolo[2,3-d]pyrimidin-2-yl)amino)-3-methoxyphenyl) dimethyl-phosphine oxide] |
| 301 to 1000 | 301 to 1000 | 301 to 1000 | COc1cc(P(C)(C)=O)ccc1Nc1nc(NCC2CCCC2)c2c(C(F)(F)F)c[nH]c2n1 [Example 392, (4-((4-((cyclo-pentylmeth-yl)amino)-5-(trifluoromethyl)-7H-pyrrolo[2,3-d]pyrimidin-2-yl)amino)-3-methoxyphenyl) dimethyl-phosphine oxide] |
| < 100 | 301 to 1000 | 301 to 1000 | CCCCNc1nc(Nc2ccc(P(C)(C)=O)cc2OC)nc2[nH]cc(C(F)(F)F)c12 [Example 393, (4-((4-(butylamino)-5-(trifluoromethyl)-7H-pyrrolo[2,3-d]pyrimidin-2-yl)amino)-3-methoxyphenyl) dimethyl-phosphine oxide] |
| < 100 | 101 to 300 | < 100 | CCNc1nc(Nc2ccc(P3(=O)CCN(C4CC4)CC3)cc2OC)nc2[nH]cc(C(F)(F)F)c12 [Example 398, 1-cyclopropyl-4-(4-((4-(ethylamino)-5-(trifluoromethyl)-7H-pyrrolo[2,3-d]pyrimidin-2-yl)amino)-3-methoxyphenyl)-1,4-azaphosphinane 4-oxide] |
| 101 to 300 | 301 to 1000 | 101 to 300 | COc1cc(P2(=O)CCN(C3CC3)CC2)ccc1Nc1nc(NC2CCC2)c2c(C(F)(F)F)c[nH]c2n1 [Example 406] |
| < 100 | 301 to 1000 | < 100 | COc1cc(P2(=O)CCN(C3CC3)CC2)ccc1Nc1nc(N[C@H]2CCOC2)c2c(C(F)(F)F)c[nH]c2n1 [Example 417, (S)-1-cyclo-propyl-4-(3-methoxy-4-((4-((tetrahydrofuran-3-yl)amino)-5-(trifluoromethyl)-7H-pyrrolo[2,3-d]pyrimidin-2-yl)amino)phenyl)-1,4-azaphosphinane 4-oxide] |
| < 100 | 301 to 1000 | < 100 | COc1cc(P2(=O)CCN(C3CC3)CC2)ccc1Nc1nc(NC2CCOCC2)c2c(C(F)(F)F)c[nH]c2n1 [Example 419, 1-cyclopropyl-4-(3-methoxy-4-((4-((tetrahydro-2H-pyran-4-yl)amino)-5-(trifluoro)-7H-pyrrolo[2,3-d]pyrimidin-2-yl)amino)phenyl)-1,4-azaphosphinane 4-oxide] |
| < 100 | 301 to 1000 | 301 to 1000 | COc1cc(P2(=O)CCN(C3CC3)CC2)ccc1Nc1nc(NCC2CC2)c2c(C(F)(F)F)c[nH]c2n1 [Example 421, 1-cyclopropyl-4-(4-((4-((cyclo-propylmeth-yl)amino)-5-(trifluoromethyl)-7H-pyrrolo[2,3-d]pyrimidin-2-yl)amino)-3-methoxyphenyl)-1,4-azaphosphinane 4-oxide] |
| < 100 | 301 to 1000 | 301 to 1000 | COc1cc(P2(=O)CCN(C3CC3)CC2)ccc1Nc1nc(NCC2CCC2)c2c(C(F)(F)F)c[nH]c2n1 [Example 423, 4-(4-((4-((cyclobutyl-methyl)amino)-5-(trifluoromethyl)-7H-pyrrolo[2,3-d]pyrimidin-2-yl)amino)-3-methoxyphenyl)-1-cyclopropyl-1,4-aza-phosphinane 4-oxide] |
| < 100 | 301 to 1000 | 301 to 1000 | O=C(c1ccc(Nc2nc(NCC3CCCC3)c3c(C(F)(F)F)c[nH]c3n2)c2c1OCCO2)N1CCN(C2COC2)CC1 [Example 425, (8-((4-((cyclo-pentylmeth-yl)amino)-5-(trifluoromethyl)-7H-pyrrolo[2,3-d]pyrimidin-2-yl)amino)-2,3-dihydrobenzo[b] [1,4]dioxin-5-yl) (4-(oxetan-3-yl)piperazin-1-yl)methanone] |
| < 100 | < 100 | < 100 | COc1cc(P2(=O)CCN(C3CC3)CC2)ccc1Nc1nc(NCCS(C)(=O)=O)c2c(C(F)(F)F)c[nH]c2n1 [Example 426, 1-cyclopropyl-4-(3-methoxy-4-((4-((2-(methyl-sulfonyl)eth-yl)amino)-5-(trifluoromethyl)-7H-pyrrolo[2,3-d]pyrimidin-2-yl)amino)phenyl)-1,4-azaphosphinane 4-oxide] |
| < 100 | < 100 | < 100 | CS(=O)(=O)CCNc1nc(Nc2ccc(C(=O)N3CCN(C4COC4)CC3)c3c2OCCO3)nc2[nH]cc(C(F)(F)F)c12 [Example 427, (8-((4-((2-(methylsulfonyl)ethyl)amino)-5-(trifluoromethyl)-7H-pyrrolo[2,3-d]pyrimidin-2-yl)amino)-2,3-dihydrobenzo[b] [1,4]dioxin-5-yl) (4-(oxetan-3-yl)piperazin-1-yl)methanone] |
